Laboratory results published in patent publication US11890286B2, “Methods and compositions for treating cancer” (THE UNIVERSITY OF CHICAGO, priority 2018, dated 2024).

Legend:
orthotopic LMB tumors = assay: Primary orthotopic LMB tumor growth in syngeneic mice; format: in vivo, mouse; conditions: single inhibitor; for primary LMB tumor growth determined by final tumor weight: syngeneic model, 10 mg/kg/day or lower
Description: For primary tumor growth experiments, 2×10^6 BM1 cells, 5×10^5 LMB cells, or 1×10^6 […] cells were injected orthotopically near the mammary fat pad of athymic nude, C57B1/6, or C3-1-TAg-REAR mice, respectively. Tumor growth was monitored over time by caliper measurements of the width and length of tumors. Tumor volumes were calculated with the formula: For the in vivo studies involving MAPK inhibitors and the 4-drug MAPKi combination treatment, small molecule inhibitors were resuspended under sterile conditions. […] No. 91893)+50% saline. JNK inhibitor SP600125 and MEK inhibitor Trametinib were diluted in corn oil (Sigma, Cat. No. C8267). For the 4-drug combinatorial treatment, all inhibitors were dissolved in their own solvent at 4×higher concentration then the desired final concentration. Then, SB203580 and URMC-099 were mixed at a 1:1 ratio, reducing the concentration for each drug down to 2×. Similarly, SP600125 and Trametinib were mixed at a 1:1 ratio. These dual combination solutions were then filtered through 0.22 μm PES filter syringes to assure sterility. Each mouse received 50 μl of each dual combination on the same day, resulting in a total of 100 μl of drug mix (2 injections per mouse) with each drug at their desired 1×final concentration. […] All injections were intraperitoneal. For the tumor growth experiments with the MAPK inhibitors, tumors were allowed to reach the size 50-100 mm^3 size before the MAPKi treatment began. Then, the mice were treated with the respective MAPKi treatment (or the control) for up to 3 weeks. Tumor size was monitored twice a week with a caliper. For the metastasis assays, the tumor cells were treated with the 4-drug MAPKi combination at the in vitro doses for 24 hours prior to injections to allow for anti-metastatic reprogramming of the cells. Homing to metastatic tissues upon intracardiac or tail vein injections can take up to 48 hours. […] After the inoculation, the mice were treated with the inhibitors daily for up to 3 weeks until the experimental endpoints discussed above were reached.

JNK = assay: Signaling study in vitro, immunoblot of JNK phosphorylation in TNBC cell lines; format: cell-based, human and mouse
Description: (§1) Signaling studies in vitro: In order to investigate the changes in stress kinase signaling upon stress in the presence of RKIP, or small molecule inhibitors of the MAPKs, cells were plated at sub-confluence. Once they reached roughly 70% confluence, they were starved overnight (16-24 hours) in serum-free media, and then induced with either anisomycin (Sigma-Aldrich, Cat. No. A9789) at 25 ng/ml or 100 ng/ml final concentration, or by 10% serum for 30 minutes to activate MAPK pathways. In studies with small molecule inhibitors of the MAPK pathway, all inhibitors were re-suspended in DMSO and used at indicated concentrations. The cells were pre-treated with the inhibitors in serum-free media for 30 minutes after overnight starvation, immediately before induction with anisomycin or serum for 30 minutes. In this case, the inducing agent was directly added to the pre-treatment media that already had the inhibitors, or the pre-treatment media was replaced by fresh media containing the inducer and the inhibitors. […]
(§2) Protein isolation and western blots: Cultured cells were washed with cold PBS and lysed in RIPA buffer with protease inhibitors (Millipore Sigma, Cat. No. 539134) and phosphatase inhibitors (GoldBio, Cat. No. GB-450). […] Supernatant was collected and the protein concentration measured using the Bradford assay. […]

[1] = test system: BM1 cells (BM1-NucLight Red); assay: High-throughput chemotactic invasion assay of nuclear-labeled BM1 cells; format: cell-based, human; conditions: 72 hours, single drug
Description: High-throughput chemotactic invasion assays: For testing anti-invasive drug combinations, IncuCyte® ClearView 96-Well Chemotaxis plates (Essen BioScience) were used. 2000 cells per well were embedded in 2 mg/ml BME and plated onto the chemotaxis plate following the manufacturer's instructions. Media containing 2% FBS was used in both top and bottom chambers to maintain cell viability over 72 hours or more. 200 ng/ml human EGF (Bio-Techne, 236-EG-01M) was used as the chemotactic agent in the bottom chamber, and the control wells only had the vehicle for the chemotactic agent.
This assay is more accurate when nuclear-labeled cells are used. Therefore, BM1-mKate2 (nuclear red) cells were generated using IncuCyte® NucLight Red Lentivirus Reagent (Essen BioScience, Cat. No. 4478) following the manufacturer's instructions. After transduction, cells with the highest nuclear red signal intensity (top 25%) were sorted by FACS.
(§3) The chemotaxis module in IncuCyte® can accurately count the number of cell in the top chamber and the bottom chamber of the ClearView plates separately. Invasive capability of the cells in the presence of various small molecule inhibitors was measured as the percentage of cells that moved to the bottom chamber over the period of 72 hours. The formula used for this calculation is (number of cells in the bottom chamber)/(number of cells in the bottom chamber+number of cells in the top chamber)×100. The total number of cells in the top and bottom chambers is used as a readout of proliferation, which was important for determining drug combinations that blocked invasion without affecting growth properties of the cells.

p38 = assay: Signaling study in vitro, immunoblot of p38 phosphorylation in TNBC cell lines; format: cell-based, human and mouse; conditions: anisomycin-induced human cell lines (BM1, MB436)
Description: as §1, §2

BM1 cells [2] = assay: Chemotactic invasion assay, BM1 cells; format: cell-based, human; conditions: increasing doses, single drug
Description: (§4) Boyden Chamber Invasion Assay: Each Boyden chamber membrane (Fisher Scientific, Cat. No. 353097) was coated with a thin layer of BME (200 μl of 0.25 mg/ml stock, or total of 50 μg of BME per membrane) and incubated at 37° C. for 1 hour. Cells were trypsinized and centrifuged at 500×g for 5 minutes followed by two rounds of PBS washes to remove remaining serum-containing media. Then, the cells were resuspended in serum-free media and diluted to the desired concentration for plating onto the Boyden chambers. Each Boyden chamber received 20,000-100,000 cells in 300 μl serum-free media, depending on the cell line. 10% serum was used as the chemoattractant for these assays. For the experiments testing the effect of MAPK inhibitors on invasion, the cells were resuspended in drug-containing serum-free media immediately. After 16-24 hours, the membranes were stained with Calcein AM (Fisher Scientific, Cat. No. 354217) for 1 hour at 37° C. in the dark to stain for live cells. Cells that are in the top chamber were removed from the membrane with a wet cotton swab. Cells in the bottom chamber were dissociated from the membrane by incubating in cell dissociation buffer (Trevigen, Cultrex®, Cat. No. 3455-096-05) in a shaker at 37° C. for 1 hour. Calcein AM signal was measured in Perkin Elmer Victor X3 plate reader as a read-out of invaded cells.

MB436 cells = assay: Chemotactic invasion assay, MB436 cells; format: cell-based, human; conditions: increasing doses, single drug
Description: as §4

BM1 cells [3] = assay: 3D proliferation of BM1 cells (total cell number in the invasion assay); format: cell-based, human; conditions: BM1, 10 μM and above
Description: as §3
3D Cultures: For 3D proliferation experiments, we used Cultrex® 3D Basement Membrane Matrix, Reduced Growth Factor (Trevigen, Cat. No. 3445-005-01, Lot No 37353J16, Lot concentration: 15.51 mg/ml, referred to as BME). For all experiments, the cells in growth media were mixed with BME at a final concentration of 2 mg/ml. For 3D proliferation assays, 100 μl of the cell/BME mixture was dispensed into each well of a 96-well plate. Upon solidification of BME, 100 μl of growth media was added on top of the solidified gel. […] The growth of the cells was monitored in IncuCyte® Zoom or S3 models for the indicated duration of time.

C[S+]([O-])c1ccc(-c2nc(-c3ccc(F)cc3)c(-c3ccncc3)[nH]2)cc1 (stereo not shown) [SB203580, 4-(4-Fluorophenyl)-2-(4-methylsulfinylphenyl)-5-(4-pyridyl)-1H-imidazole]
primary LMB tumor growth determined by final tumor weight (orthotopic LMB tumors): do not affect primary LMB tumor growth | JNK activation upon p38 inhibition (crosstalk) (JNK; serum-induced, all four human and mouse TNBC cell lines): resulted in JNK activation | minimal dose at which the proliferation rates were unaffected while the invasive capabilities of the cells were at least partially blocked [1]: 1 µM

Oc1c2ccccc2c2c3c(cccc13)N=N2 [SP600125, 1,9-Pyrazoloanthrone]
minimal dose at which the proliferation rates were unaffected while the invasive capabilities of the cells were at least partially blocked [1]: 1 µM

CC(=O)Nc1cccc(-n2c(=O)n(C3CC3)c(=O)c3c(Nc4ccc(I)cc4F)n(C)c(=O)c(C)c32)c1 [Trametinib]
primary LMB tumor growth (orthotopic LMB tumors; doses below 1 mg/kg): no significant effect | minimal dose at which the proliferation rates were unaffected while the invasive capabilities of the cells were at least partially blocked [1]: 0.001 to 0.01 µM

CN1CCN(Cc2ccc(-c3cnc4[nH]cc(-c5ccc6[nH]ccc6c5)c4c3)cc2)CC1 [URMC-099, 3-(1H-indol-5-yl)-5-[4-[(4-methyl-1-piperazinyl)methyl]phenyl]-1H-pyrrolo[2,3-b]pyridine]
primary LMB tumor growth determined by final tumor weight (orthotopic LMB tumors): do not affect primary LMB tumor growth | p38 activation (p38): decrease | invasion of BM1 cells (BM1 cells [2]): decreased invasion | JNK activation (JNK; anisomycin-induced human cell lines (BM1, MB436)): decrease | invasion of MB436 cells (MB436 cells): decreased invasion | minimal dose at which the proliferation rates were unaffected while the invasive capabilities of the cells were at least partially blocked [1]: 0.01 to 0.05 µM

O=C(O)c1ccc2c(c1)nc(Nc1cccc(Cl)c1)c1ccncc12 [CX-4945]
effect on growth at the doses that blocked invasion (BM1 cells [3]): growth-inhibitory
